Data on one compound can be found in paper PMC5687273 (Cell reports, 2017).

The target of this assay is Cdk7^as (Homo sapiens, UniProt P50613, D92E/F91G). Description: in vitro kinase assay on GST-CTD, autoradiography. Type of assay: biochemical.

Structures are written as SMILES.

Cdk7^as, sequence (P50613 2-346 F91G/D92E): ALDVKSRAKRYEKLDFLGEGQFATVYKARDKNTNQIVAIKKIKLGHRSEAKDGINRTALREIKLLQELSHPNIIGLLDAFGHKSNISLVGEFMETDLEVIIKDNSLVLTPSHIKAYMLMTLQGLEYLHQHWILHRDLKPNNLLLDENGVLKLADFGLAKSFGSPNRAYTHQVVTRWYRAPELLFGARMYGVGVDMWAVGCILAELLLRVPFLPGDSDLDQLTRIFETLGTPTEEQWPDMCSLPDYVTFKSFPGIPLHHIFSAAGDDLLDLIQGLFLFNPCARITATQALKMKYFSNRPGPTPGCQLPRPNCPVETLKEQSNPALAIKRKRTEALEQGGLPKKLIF
Cdk7^as, sequence (P51946 whole entry partner): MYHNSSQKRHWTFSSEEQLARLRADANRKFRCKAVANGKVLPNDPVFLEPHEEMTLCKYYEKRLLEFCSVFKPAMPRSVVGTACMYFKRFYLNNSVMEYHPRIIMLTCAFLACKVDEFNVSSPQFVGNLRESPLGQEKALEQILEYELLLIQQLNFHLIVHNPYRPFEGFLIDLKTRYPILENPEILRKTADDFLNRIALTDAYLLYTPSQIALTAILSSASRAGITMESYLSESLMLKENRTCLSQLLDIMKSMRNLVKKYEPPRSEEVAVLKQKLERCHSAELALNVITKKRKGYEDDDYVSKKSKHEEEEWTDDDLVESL
Cdk7^as, sequence (P51948 whole entry partner): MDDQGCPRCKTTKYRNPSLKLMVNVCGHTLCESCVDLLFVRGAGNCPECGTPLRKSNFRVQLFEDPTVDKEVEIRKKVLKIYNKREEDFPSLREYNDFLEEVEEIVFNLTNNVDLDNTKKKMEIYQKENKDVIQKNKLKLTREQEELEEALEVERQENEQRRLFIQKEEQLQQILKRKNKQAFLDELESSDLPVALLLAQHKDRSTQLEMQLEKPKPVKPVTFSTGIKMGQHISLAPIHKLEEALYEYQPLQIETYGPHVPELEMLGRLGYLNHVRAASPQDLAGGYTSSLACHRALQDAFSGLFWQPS

A word on the IC50: it is the point on the concentration scale where inhibition reaches its midpoint. Low readings indicate greater potency, high ones weaker potency. For `Cc1cccc(Cc2nn(C(C)(C)C)c3ncnc(N)c23)c1` [3-MB-PP1], the half-inhibitory concentration (IC50) was ~10 nM.
